Assay results reported in US10576105B2, “Mesenchymal stem cells with enhanced immunosuppressive capability” (Escape Therapeutics, Inc., priority 2015, dated 2020).

Legend:
Assay type in all cases: cell-based, human
HLA-G1 [1] = test: HLA-G1 transcript expression in BMSCs by semi-quantitative RT-PCR; settings: mean±SEM
Method: (§1) Adult BMSCs (passage 2) were obtained from Cell Applications, Inc. (San Diego, Calif.) and cultured in alpha-minimum essential medium (α-MEM) (Invitrogen) supplemented with 10% FBS and 1% penicillin/streptomycin (Invitrogen) at 37° C. in a humidified 5% CO2 incubator. At 70-80% confluence, cells were harvested with 0.25% trypsin-EDTA (Invitrogen) and expanded at 1:3 split ratios.
(§2) Demethylating treatment was carried out by culturing MSCs for 72 h with 5-aza-2′-deoxycytidine (5-aza-dC) (Sigma) at a final concentration of 10 μM or with the solvent DMSO as control.
(§3) After 72 h treatment, cells were trypsinized and total RNA extracted using RNeasy kit (Qiagen, Valencia, Calif.) according to the manufacturer's protocol. Semi-quantitative RT-PCR reactions were performed on a DNA Engine Peltier Thermal Cycler (Bio-Rad, Hercules, Calif.) as previously described. M. D. Nicola, et al., Human bone marrow stromal cells suppress T-lymphocyte proliferation induced by cellular or non-specific mitogenic stimuli, Blood 99: 3838-3843 (2002). Briefly, first strand cDNA was synthesized in 50 μl reactions from 2 μg total RNA using oligo dT primers and TaqMan reverse transcription reagents (Applied Biosystems, Foster City, Calif.). Reverse transcription (RT) reactions were carried out at 24° C. for 10 min, 48° C. for 1 h, and heat inactivation at 95° C. for 5 min. […] PCR program consisted of 94° C. for 4 min, followed by 30 cycles at 94° C. for 30 s, 60° C. for 1 min, and 72° C. for 1 min with a final extension at 72° C. for 10 min. PCR products were separated using 1.5% agarose gel in the presence of 0.5 μg/ml ethidium bromide and imaged using the FluorChem® HD2 Imaging System (Alpha Innotech Corporation, San Leandro, Calif.). Densitometry analysis was performed using AlphaEase FC software (Alpha Innotech Corporation). […]
(§4) Total RNA was extracted from both treated and untreated cells, and HLA-G1 and -G3 transcripts analyzed by semi-quantitative RT-PCR.
(§5) MSCs were treated with Valproic acid (VPA) (a known histone deacetylase inhibitor (HDAC) inhibitor) and HLA-G1, -G3 and HLA-G5 transcripts were evaluated by semi-quantitative RT-PCR.

HLA-G3 [2] = test: HLA-G3 transcript expression in BMSCs by semi-quantitative RT-PCR; settings: mean±SEM
Method: as §1, §2
After 72 h treatment, cells were trypsinized and total RNA extracted using RNeasy kit (Qiagen, Valencia, Calif.) according to the manufacturer's protocol. Semi-quantitative RT-PCR reactions were performed on a DNA Engine Peltier Thermal Cycler (Bio-Rad, Hercules, Calif.) as previously described. M. D. Nicola, et al., Human bone marrow stromal cells suppress T-lymphocyte proliferation induced by cellular or non-specific mitogenic stimuli, Blood 99: 3838-3843 (2002). Briefly, first strand cDNA was synthesized in 50 μl reactions from 2 μg total RNA using oligo dT primers and TaqMan reverse transcription reagents (Applied Biosystems, Foster City, Calif.). Reverse transcription (RT) reactions were carried out at 24° C. for 10 min, 48° C. for 1 h, and heat inactivation at 95° C. for 5 min. RT samples were diluted at 1:4 in DNase, RNase free water and PCR performed in 20 μl reaction using Taq PCR master mix (Qiagen), 1 μl of diluted template, and HLA-G primers (Table 1). β-actin was used as an internal control. PCR program consisted of 94° C. for 4 min, followed by 30 cycles at 94° C. for 30 s, 60° C. for 1 min, and 72° C. for 1 min with a final extension at 72° C. for 10 min. PCR products were separated using 1.5% agarose gel in the presence of 0.5 μg/ml ethidium bromide and imaged using the FluorChem® HD2 Imaging System (Alpha Innotech Corporation, San Leandro, Calif.). Densitometry analysis was performed using AlphaEase FC software (Alpha Innotech Corporation). Relative expression levels were calculated from the ratio of integrated density values of HLA-G to that of β-actin.
as §4, §5

HLA-G1 [3] = test: HLA-G1 transcript expression in AMSCs by semi-quantitative RT-PCR; settings: for Relative HLA-G1 expression: 10 μM for 72 h, ratio HLA-G to β-actin, mean±SEM, 3 experiments
Method: AMSCs were isolated from adult human lipoaspirate of patients undergoing liposuction procedure. Briefly, abdominal subcutaneous adipose samples were washed with Hanks' balanced salt solutions (HBSS) (Invitrogen, Carlsbad, Calif.). After gentle shaking, the lower phase (containing stem cells, adipocytes, and blood) was washed and enzymatically dissociated with 0.075% collagenase type I (Sigma-Aldrich, St. Louis, Mo.)/HBSS for 1 h at 37° C. with gentle shaking. Collagenase was inactivated by adding fetal bovine serum (FBS) and samples were centrifuged at 400 g for 10 min at 25° C. The pellet was resuspended in RBC lysis buffer (eBioscience, San Diego, Calif.) and adherent cell masses were removed by sequential passing through 100, 70, and 40 μm mesh filters. Cells were then added into equal amounts of HISTOPAQUE-1077 (Sigma) and centrifuged at 400 g for 30 min to separate MSCs. Cells were seeded at 1-2×10^4 cells/cm^2 and grown in Dulbecco's modified eagle medium (DMEM, Invitrogen) supplemented with 10% FBS and 1% penicillin/streptomycin (Invitrogen) at 37° C. in a humidified 5% CO2 incubator and media changed every 2-3 d. After reaching 70-80% confluence, cells were washed with phosphate buffered saline (PBS), detached with 0.25% trypsin-EDTA (Invitrogen), then centrifuged and expanded at 1:3 split ratios. […]
After 72 h treatment, cells were trypsinized and total RNA extracted using RNeasy kit (Qiagen, Valencia, Calif.) according to the manufacturer's protocol. Semi-quantitative RT-PCR reactions were performed on a DNA Engine Peltier Thermal Cycler (Bio-Rad, Hercules, Calif.) as previously described. […] Relative expression levels were calculated from the ratio of integrated density values of HLA-G to that of β-actin.
as §4, §5

HLA-G3 [4] = test: HLA-G3 transcript expression in AMSCs by semi-quantitative RT-PCR; settings: for Relative HLA-G3 expression: ratio HLA-G to β-actin, mean±SEM, 3 experiments
Method: (§6) AMSCs were isolated from adult human lipoaspirate of patients undergoing liposuction procedure. Briefly, abdominal subcutaneous adipose samples were washed with Hanks' balanced salt solutions (HBSS) (Invitrogen, Carlsbad, Calif.). After gentle shaking, the lower phase (containing stem cells, adipocytes, and blood) was washed and enzymatically dissociated with 0.075% collagenase type I (Sigma-Aldrich, St. Louis, Mo.)/HBSS for 1 h at 37° C. with gentle shaking. Collagenase was inactivated by adding fetal bovine serum (FBS) and samples were centrifuged at 400 g for 10 min at 25° C. The pellet was resuspended in RBC lysis buffer (eBioscience, San Diego, Calif.) and adherent cell masses were removed by sequential passing through 100, 70, and 40 μm mesh filters. Cells were then added into equal amounts of HISTOPAQUE-1077 (Sigma) and centrifuged at 400 g for 30 min to separate MSCs. Cells were seeded at 1-2×10^4 cells/cm^2 and grown in Dulbecco's modified eagle medium (DMEM, Invitrogen) supplemented with 10% FBS and 1% penicillin/streptomycin (Invitrogen) at 37° C. in a humidified 5% CO2 incubator and media changed every 2-3 d. After reaching 70-80% confluence, cells were washed with phosphate buffered saline (PBS), detached with 0.25% trypsin-EDTA (Invitrogen), then centrifuged and expanded at 1:3 split ratios.
as §2
After 72 h treatment, cells were trypsinized and total RNA extracted using RNeasy kit (Qiagen, Valencia, Calif.) according to the manufacturer's protocol. Semi-quantitative RT-PCR reactions were performed on a DNA Engine Peltier Thermal Cycler (Bio-Rad, Hercules, Calif.) as previously described. M. D. Nicola, et al., Human bone marrow stromal cells suppress T-lymphocyte proliferation induced by cellular or non-specific mitogenic stimuli, Blood 99: 3838-3843 (2002). Briefly, first strand cDNA was synthesized in 50 μl reactions from 2 μg total RNA using oligo dT primers and TaqMan reverse transcription reagents (Applied Biosystems, Foster City, Calif.). Reverse transcription (RT) reactions were carried out at 24° C. for 10 min, 48° C. for 1 h, and heat inactivation at 95° C. for 5 min. […] Relative expression levels were calculated from the ratio of integrated density values of HLA-G to that of β-actin.
as §4, §5

HLA-G5 [5] = test: HLA-G5 mRNA level in BMSCs by RT-PCR; settings: band intensity HLA-G5 divided by β2M, means±SEM, 3 runs
Method: as §1
as §3, with “min.” for “min. PCR products were separated using 1.5% agarose gel in the presence of 0.5 μg/ml ethidium bromide and imaged using the FluorChem® HD2 Imaging System (Alpha Innotech Corporation, San Leandro, Calif.). Densitometry analysis was performed using AlphaEase FC software (Alpha Innotech Corporation).”

HLA-G5 [6] = test: HLA-G5 mRNA level in AMSCs by RT-PCR; settings: for Relative expression of HLA-G5: AMSCs, band intensity HLA-G5 divided by β2M, means±SEM, 3 runs
Method: as §6
After 72 h treatment, cells were trypsinized and total RNA extracted using RNeasy kit (Qiagen, Valencia, Calif.) according to the manufacturer's protocol. Semi-quantitative RT-PCR reactions were performed on a DNA Engine Peltier Thermal Cycler (Bio-Rad, Hercules, Calif.) as previously described. M. D. Nicola, et al., Human bone marrow stromal cells suppress T-lymphocyte proliferation induced by cellular or non-specific mitogenic stimuli, Blood 99: 3838-3843 (2002). Briefly, first strand cDNA was synthesized in 50 μl reactions from 2 μg total RNA using oligo dT primers and TaqMan reverse transcription reagents (Applied Biosystems, Foster City, Calif.). […]

[7] = BMSCs passage 5 (P5), 10 μM for 72 h, ratio HLA-G to β-actin, 3 experiments
[8] = BMSCs passage 10 (P10), 10 μM for 72 h, ratio HLA-G to β-actin, 3 experiments

Row | SMILES | Relative HLA-G1 expression (HLA-G1 [1]; [7]) | Relative HLA-G1 expression (HLA-G1 [1]; [8]) | Relative HLA-G3 expression (HLA-G3 [2]; [7]) | Relative HLA-G3 expression (HLA-G3 [2]; [8]) | Relative HLA-G1 expression (HLA-G1 [3]; AMSCs passage 5 (P5)) | Relative HLA-G1 expression (HLA-G1 [3]; AMSCs passage 10 (P10)) | Relative HLA-G3 expression, fold higher than untreated (HLA-G3 [4]; AMSCs P5 and P10, 10 μM for 72 h, treated versus untreated) [fold] | Relative HLA-G3 expression (HLA-G3 [4]; AMSCs passage 5 (P5), 10 μM for 72 h) | Relative HLA-G3 expression (HLA-G3 [4]; AMSCs passage 10 (P10), 10 μM for 72 h) | Relative expression of HLA-G5 (HLA-G5 [5]) | Relative expression of HLA-G5 (HLA-G5 [6]) | Relative HLA-G1 expression (HLA-G1 [1]; VPA-treated BMSCs passage 5 (P5), relative to β2M (FIG. 5A)) | Relative HLA-G1 expression (HLA-G1 [1]; VPA-treated BMSCs passage 10 (P10), relative to β2M (FIG. 5A)) | Relative HLA-G3 expression (HLA-G3 [2]; VPA-treated BMSCs passage 5 (P5), FIG. 5B) | Relative HLA-G3 expression (HLA-G3 [2]; VPA-treated BMSCs passage 10 (P10), FIG. 5B) | Upregulation of HLA-G1 mRNA (HLA-G1 [3]; AMSCs treated with VPA, P5 and P10 (FIG. 5C)) | Upregulation of HLA-G3 mRNA (HLA-G3 [4]; AMSCs treated with VPA, P5 and P10 (FIG. 5D)) | Upregulation of HLA-G5 mRNA (HLA-G5 [6]; AMSCs treated with VPA (Table 2))
1 | Nc1ncn([C@H]2C[C@H](O)[C@@H](CO)O2)c(=O)n1 [5-aza-dC, 4-amino-1-(2-deoxy-b-D-erythro-pentofuranosyl)-1,3,5-triazin-2(1H)-one] | 0.16±0.01 | 0.24±0.01 | 0.33±0.08 | 0.38±0.07 | 0.15±0.02 | 0.23±0.19 | ~2 | 0.31±0.05 | 0.27±0.06 | 0.009 ± 0.00 | 0.009 ± 0.001 |  |  |  |  |  |  | 
2 | CCCC(CCC)C(=O)O [VPA, Valproic acid] |  |  |  |  |  |  |  |  |  | 0.006 ± 0.004 | 0.006 ± 0.00 | 0.08±0.02 | 0.05±0.002 | 0.04±0.01 | 0.01±0.001 | no upregulation | no upregulation | no upregulation
